From patent US8618080B2, “Immunomodulatory compounds and treatment of diseases related to an overproduction of inflammatory cytokines” (OM Pharma, priority 2006, dated 2013)

Columns and labels:
human CD4+ T cells = test: Cytokine production and proliferation of naïve CD4+ T cells stimulated with anti-CD3 and anti-CD28; assay type: cell-based; conditions: 0.02-20 μg/ml; for IFN-γ production by CD4+ T cells / IL-13 production by CD4+ T cells: 6 days, ELISA
Protocol: A series of four compounds of the present invention (OM-197-MP-AC, OM-197-MC-HD, OM-294-BA-MP, OM-197-MP-HD) were tested directly as summarized below:
Naïve CD4^+ T cells were magnetically sorted from healthy blood donor (buffy coat). The cells were stimulated in the presence or not of graded doses of triacyl derivatives (0.02; 0.2; 2 and 20 μg/ml) using plate-bound anti-CD3 (5 μg/ml) and soluble anti-CD28 (1 μg/ml). After 6 days, cytokine levels (IFN-γ and IL-13) were tested in the culture supernatants using ELISA.
FIGS. 3A-3D: Effect of increasing doses of the four compounds tested (OM-197-MP-AC, n=5; OM-197-MC-HD, n=5; OM-294-BA-MP, n=7; OM-197-MP-HD, n=3) on IFN-γ and IL-13 production of human CD4^+ T cells following a polyclonal activation. Results are expressed as the median (±p25/p75) of n independent experiments and show the percentage (%) proliferation or cytokine production of treated cells versus untreated cells (considered as 100%, see dotted line). The statistical analysis was performed using a nonparametric unpaired Mann-Whitney t test (2-tailed).

murine DC cells = test: LPS-induced IL-12, TNF-α and IL-10 production by bone marrow derived dendritic cells; assay type: cell-based, murine (C57BL/7); conditions: murine BM-derived DC; compound 0.01-100 μg/ml 1 h 30 before LPS 1 μg/ml; 20 h; ELISA
Protocol: Femora and tibiae from two male C57BL/7, 6 week-old (Charles River Laboratories France), were removed, stripped of muscles and tendons, and desinfected with 70% ethanol. Both ends of each bone were cut and the marrow was flushed with HBSS (Gibco BRL) using a syringe with a 26-gauge needle. The resulting cell suspension was centrifuged for 5 min. at 500 g and washed in HBSS. The cells were resuspended at 3×10^5 cells/ml in RPMI-1640 (Gibco BRL) supplemented with 2 mM L-glutamin (Sigma), 100 U/ml penicillin (Sigma), 100 μg/ml streptomycin (Sigma), 50 μM β-mercaptoethanol (Sigma), 10% heat-inactivated FCS (Sigma) and 15 ng/ml murine rGM-CSF (R&D).
To generate bone marrow (BM) derived dendritic cells (DC), BM leukocytes were cultured in 100-mm bacteriological petri dishes (Falcon 1029) for 8 days at 37° C. in 5% CO2. On day 0, 10 ml of cell suspension were seeded per dish. On day 3, another 10 ml of freshly prepared medium were added to each plate and on day 6, 9 ml of top medium were carefully removed from each plate and replaced by 10 ml of fresh medium.
Non-adherent cells of the 8-day old BM cell cultures were collected, centrifuged for 5 min. at 500 g, and resuspended at 1.25×10^6 cells/ml in supplemented RPMI containing 10 ng/ml GM-CSF. The cells were then seeded in 24-well tissue culture plates ([…]) and incubated for 1 h 30 at 37° C. in 5% CO2 in the absence or presence of OM-294-DP or OM-197-MP-AC (0.01-100 μg/ml/200 μl/well). LPS (E.coli O26:B6, Sigma), was then added at 1 μg/ml, and the plates were further incubated. After 20 h incubation, the supernatants were collected for analysis of cytokines. IL-12p70, IL-10, and TNF-α concentrations in DC culture supernatants were measured by ELISA using OptEIA matched Ab pairs from BD Pharmingen. Supersignal ELISA Pico chemiluminescent peroxidase substrate (BD Pharmingen) was used for the detection by luminometry (Wallac 1420 multilabel counter Victor-2). The assays were performed according to manufacturer's instructions.
FIG. 1: IL-12 (left panels) and IL-10 (right panels) secretion by murine DC stimulated by LPS (1 μg/ml) alone, or first during 90 minutes with the indicated concentrations (in μg/ml) of OM-197-MP-AC (A) or 294-DP (B), and then by LPS (1 μg/ml) for 20 additional hours. The supernatants were collected from the DC cultures and analyzed by ELISA for the presence of IL-12 and IL-10.
FIG. 2: TNF-α secretion by murine DC stimulated by LPS (1 μg/ml) alone, or first during 90 minutes with the indicated concentrations (in μg/ml) of 294-DP (294), or of OM-197-MP-AC (197), and then by LPS (1 μg/ml) for 20 additional hours. The supernatants were collected from the DC cultures and analyzed by ELISA for the presence of TNF-α.

[1] = system: Limulus Amoebocyte Lysate; test: Limulus Amoebocyte Lysate chromogenic test (LAL endotoxicity); assay type: biochemical
Protocol: Endotoxicity was determined first for OM-197-MP-AC and for OM-294-DP by the Limulus Amoebocyte Lysate chromogenic test (Chromogenic-LAL of Bio-Whittaker, kit n° 50-65OU).
The enzymatic reaction is carried out at 37° C. and the formation of the chromogen over time is measured at 405 nm. The time necessary to reach 0.2 units of D.O. is recorded and the endotoxic activity calculated in relation to a LPS standard (standard curve). The results are expressed in EU (Endotoxin Unit) in relation to a standardized preparation of E. coli LPS (1 EU corresponds to 0.08 ng equivalent LPS).

CCCCCCCCCCCC(=O)O[C@H](CCCCCCCCCCC)CC(=O)N[C@@H](CC(=O)O)C(=O)NCCC[C@H](COC(=O)CCCCC(O)CO)NC(=O)C[C@H](O)CCCCCCCCCCC (stereo partly drawn) [OM-197-MC-HD, N-[(R)-3-dodecanoyloxytetradecanoylamino]-L-aspartic acid, α-N-{(4R)-5-hydroxy-4-[(R)-3-hydroxytetradecanoylamino]pentyl}amide 5-O-(6,7-dihydroxyheptanoate)]
T cell proliferation (human CD4+ T cells): unaffected | IFN-γ production by CD4+ T cells (human CD4+ T cells): unaffected | IL-13 production by CD4+ T cells (human CD4+ T cells): reduced

CCCCCCCCCCCC(=O)O[C@H](CCCCCCCCCCC)CC(=O)N[C@@H](CCOP(=O)(O)O)C(=O)NCCC[C@H](COC(=O)CCCCC(O)CO)NC(=O)C[C@H](O)CCCCCCCCCCC (stereo partly drawn) [OM-197-MP-HD, (3S, 9R)-3-[(R)-3-dodecanoyloxytetradecanoylamino]-4-oxo-5-aza-9-[(R)-3-hydroxytetradecanoylamino]-decan-1, 10-diol 1-dihydrogenophosphate 10-(6,7-dihydroxyheptanoate)]
T cell proliferation (human CD4+ T cells): unaffected | IFN-γ production by CD4+ T cells (human CD4+ T cells): unaffected | IL-13 production by CD4+ T cells (human CD4+ T cells): reduced

CCCCCCCCCCCC(=O)O[C@H](CCCCCCCCCCC)CC(=O)N[C@@H](CCCCN)C(=O)NCCC[C@H](COP(=O)(O)O)NC(=O)C[C@H](O)CCCCCCCCCCC [OM-294-BA-MP, (5S,11R)-1-Amino-5-[(R)-3-dodecanoyloxytetradecanoylamino]-6-oxo-7-aza-11-[(R)-3-hydroxytetradecanoylamino]-dodecan-12-ol 12-dihydrogenophosphate]
T cell proliferation (human CD4+ T cells): unaffected | IFN-γ production by CD4+ T cells (human CD4+ T cells): unaffected | IL-13 production by CD4+ T cells (human CD4+ T cells): reduced

CCCCCCCCCCCC(=O)O[C@H](CCCCCCCCCCC)CC(=O)N[C@@H](CCOP(=O)(O)O)C(=O)NCCC[C@H](COP(=O)(O)O)NC(=O)C[C@H](O)CCCCCCCCCCC [OM-294-DP]
LPS-induced production of IL-10 (murine DC cells): increase | LPS-induced production of IL-12 (murine DC cells): decrease | LPS-induced production of TNF-α (murine DC cells): decrease | Limulus activity in the chromogenic LAL assay [1]: very little or no Limulus activity
